Converted amounts (≈) assume the structure as drawn. Where a name gives a salt, the structure may show the parent alone. Read-outs that look alike come from different tables or passages of the source.
Assays:
[1] = system: Rats model of deep vein thrombosis; assay: Rat model of deep vein thrombosis (thrombus weight); format: in vivo, SD rats; settings: for Thrombosis inhibition rate (%) / Thrombus weight: oral gavage
Source text: Experimental animals: SD rats (body weight 220 to 250 g, sex: male)
The thrombus was removed and weighed.

Solubility determination = format: physicochemical
[2] = Method: Experimental animals: SD rats (body weight 200 to 300 g, sex: half of male and half of female)
The doses of 5, 10 and 20 mg/kg were administered by gavage, and blood was collected from the jugular vein at 5 min, 10 min, 20 min, 30 min, 1 h, 2 h, 4 h, 6 h, 8 h, 12 h and 24 h after the administration of the drug, processed, and analyzed for blood drug level by LC-MS/MS.
Data were processed using Phoenix WinNonlin 6.4 non-compartmental model to calculate the pharmacokinetic parameters of rats after drug administration, including t1/2, AUC0-t, AUC0-∞, Cl/F or Clss/F or Cl, Vz/F or Vss, MRT, Cmax, C5min, Tmax, and Cmin, Cavg, and AUC0-τ for multiple administrations to reach steady state, etc.

[3] = Moisture adsorption / hygroscopicity (DVS); format: physicochemical
[4] = Blood drug level in the rat deep vein thrombosis model
Method: Preparation of solution: An appropriate amount of Form I was weighed, dissolved in a vehicle (0.5% (W/V) Natrosol™ 250 HX solution containing 0.1% (W/V) L(+)-tartaric acid) to formulate into the required concentration and then stirred uniformly, so that the drug was administered according to the predetermined dose.
Procedure: Rats were acclimatized for 3 days and randomly divided into three groups: model group, positive control group/subject group and bridging group, with 8 to 10 rats in each group. […] Rats in each group were anesthetized with urethane (20%, 5 mL/kg) via intraperitoneal injection. The abdominal cavity was exposed, the vena cava was bluntly separated, and two surgical sutures of 8 to 10 cm in length were placed under the blood vessels, both 1 cm apart. When the modeling time of each group was reached, rabbit thromboplastin (0.02 mg/kg) was injected into the left femoral vein, and the two sutures were knotted 10 s later, and the knotted portion of the suture was cut with ophthalmic scissors after 1 h. The thrombus was removed and weighed.

[5] = Accelerated stability test at 25 ± 2 °C, 60 ± 5% humidity; format: physicochemical
Method: The accelerated stability test data of the Form I at T = 25 ± 2 °C, 60 ± 5% humidity are as follows: […]

[6] = Solid-state stability of Form III (mechanical milling; storage at 60 °C sealed); format: physicochemical

CCCCCCOC(=O)NC(=N)c1ccc(CNC(=O)[C@@H]2CCCN2C(=O)[C@@H](CC(C)C)NCC(=O)OCC)cc1 [Form I]
Thrombosis inhibition rate (%) ([1]; 2.5 mg/kg): 27.0%
Thrombus weight ([1]; 2.5 mg/kg): 51.9 ± 8.3 mg
Thrombosis inhibition rate (%) ([1]; 5 mg/kg): 54.7%
Thrombus weight ([1]; 5 mg/kg): 32.1 ± 5.7 mg
Thrombus weight ([1]; 10 mg/kg): 21.3 ± 5.1 mg
Thrombosis inhibition rate (%) ([1]; 20 mg/kg): 79.7%
Thrombus weight ([1]; 20 mg/kg): 14.4 ± 3.6 mg
antithrombotic efficacy compared with dabigatran etexilate ([1]; at the same dose): basically equivalent
Solubility (Solubility determination; AC (Acetic acid)): >250 mg/mL
Solubility (Solubility determination; ACN): >250 mg/mL
Solubility (Solubility determination; DMSO): >250 mg/mL
Solubility (Solubility determination; Diox): ~125 mg/mL (≈ 218 mM)
Solubility (Solubility determination; EA): <0.3 mg/mL
Solubility (Solubility determination; EtOH): >250 mg/mL
Solubility (Solubility determination; Hept): <0.3 mg/mL
Solubility (Solubility determination; IPA): ~167 mg/mL (≈ 291 mM)
Solubility (Solubility determination; MEK): ~1.6 mg/mL (≈ 2.79 mM)
Solubility (Solubility determination; MTBE): <0.3 mg/mL
Solubility (Solubility determination; NBA): ~167 mg/mL (≈ 291 mM)
Solubility (Solubility determination; THF): ~11.1 mg/mL (≈ 19.3 mM)
Solubility (Solubility determination; Tol): <0.3 mg/mL
Solubility (Solubility determination; Water): >250 mg/mL
Solubility (Solubility determination; acetonitrile and dichloromethane): readily soluble
Solubility (Solubility determination; buffer solutions with different pH values (1.2 to 13.0)): Highly soluble
Solubility (Solubility determination; n-heptane and N, N-diisopropyl ethylamine): almost insoluble or insoluble
AUC0-t (h·ng/mL) ([2]; gavage 5 mg/kg, Female): 850+226 h·ng/mL
AUC0-∞ ([2]; gavage 5 mg/kg, Female): 854 ± 224 ng·h/mL
Cl/F ([2]; gavage 5 mg/kg, Female): 104 ± 33 mL/min/kg
Cmax ([2]; gavage 5 mg/kg, Female): 522 ± 170 ng/mL
MRT0-t ([2]; gavage 5 mg/kg, Female): 1.6 ± 0.34 h
MRT0-∞ (h) ([2]; gavage 5 mg/kg, Female): 1.7+0.38 h
Tmax ([2]; gavage 5 mg/kg, Female): 0.59 ± 0.29 h
V2/F ([2]; gavage 5 mg/kg, Female): 13.9 ± 6.75 L/kg
t1/2 ([2]; gavage 5 mg/kg, Female): 1.5 ± 0.26 h
AUC0-t ([2]; gavage 5 mg/kg, Male): 604 ± 182 ng·h/mL
AUC0-∞ ([2]; gavage 5 mg/kg, Male): 606 ± 181 ng·h/mL
Cl/F ([2]; gavage 5 mg/kg, Male): 147 ± 41.7 mL/min/kg
Cmax ([2]; gavage 5 mg/kg, Male): 344 ± 163 ng/mL
MRT0-t ([2]; gavage 5 mg/kg, Male): 1.6 ± 0.20 h
MRT0-∞ ([2]; gavage 5 mg/kg, Male): 1.7 ± 0.21 h
Tmax ([2]; gavage 5 mg/kg, Male): 0.66 ± 0.23 h
V2/F ([2]; gavage 5 mg/kg, Male): 18.1 ± 6.08 L/kg
t1/2 ([2]; gavage 5 mg/kg, Male): 1.4 ± 0.32 h
AUC0-t ([2]; gavage 5 mg/kg, Total): 727 ± 231 ng·h/mL
AUC0-∞ ([2]; gavage 5 mg/kg, Total): 730 ± 231 ng·h/mL
Cl/F ([2]; gavage 5 mg/kg, Total): 126 ± 41.7 mL/min/kg
Cmax ([2]; gavage 5 mg/kg, Total): 433 ± 181 ng/mL
MRT0-t ([2]; gavage 5 mg/kg, Total): 1.6 ± 0.26 h
MRT0-∞ ([2]; gavage 5 mg/kg, Total): 1.7 ± 0.28 h
Tmax ([2]; gavage 5 mg/kg, Total): 0.62 ± 0.24 h
V2/F ([2]; gavage 5 mg/kg, Total): 16.0 ± 6.37 L/kg
t1/2 ([2]; gavage 5 mg/kg, Total): 1.5 ± 0.27 h
AUC0-t ([2]; gavage 10 mg/kg, Female): 2060 ± 783 ng·h/mL
AUC0-∞ ([2]; gavage 10 mg/kg, Female): 1830 ng·h/mL
Cl/F ([2]; gavage 10 mg/kg, Female): 92.3 mL/min/kg
Cmax ([2]; gavage 10 mg/kg, Female): 1120 ± 385 ng/mL
MRT0-t ([2]; gavage 10 mg/kg, Female): 1.6 ± 0.27 h
MRT0-∞ ([2]; gavage 10 mg/kg, Female): 1.6 h
Tmax ([2]; gavage 10 mg/kg, Female): 0.75 ± 0.29 h
V2/F ([2]; gavage 10 mg/kg, Female): 20.1 L/kg
t1/2 ([2]; gavage 10 mg/kg, Female): 2.6 h
AUC0-t ([2]; gavage 10 mg/kg, Male): 1460 ± 324 ng·h/mL
AUC0-∞ ([2]; gavage 10 mg/kg, Male): 1460 ± 324 ng·h/mL
Cl/F ([2]; gavage 10 mg/kg, Male): 118 ± 26.5 mL/min/kg
Cmax ([2]; gavage 10 mg/kg, Male): 934 ± 299 ng/mL
MRT0-t ([2]; gavage 10 mg/kg, Male): 1.6 ± 0.24 h
MRT0-∞ ([2]; gavage 10 mg/kg, Male): 1.7 ± 0.20 h
Tmax ([2]; gavage 10 mg/kg, Male): 0.63 ± 0.25 h
V2/F ([2]; gavage 10 mg/kg, Male): 46.9 ± 24.6 L/kg
t1/2 ([2]; gavage 10 mg/kg, Male): 4.5 ± 1.8 h
AUC0-t ([2]; gavage 10 mg/kg, Total): 1760 ± 642 ng·h/mL
AUC0-∞ ([2]; gavage 10 mg/kg, Total): 1590 ± 346 ng·h/mL
Cl/F ([2]; gavage 10 mg/kg, Total): 110 ± 25.5 mL/min/kg
Cmax ([2]; gavage 10 mg/kg, Total): 1030 ± 335 ng/mL
MRT0-t ([2]; gavage 10 mg/kg, Total): 1.6 ± 0.24 h
MRT0-∞ ([2]; gavage 10 mg/kg, Total): 1.7 ± 0.26 h
Tmax ([2]; gavage 10 mg/kg, Total): 0.69 ± 0.26 h
V2/F ([2]; gavage 10 mg/kg, Total): 38.0 ± 23.6 L/kg
t1/2 ([2]; gavage 10 mg/kg, Total): 3.9 ± 1.8 h
AUC0-t ([2]; gavage 20 mg/kg, Female): 3840 ± 446 ng·h/mL
AUC0-∞ (h·ng/mL) ([2]; gavage 20 mg/kg, Female): 3850+446 h·ng/mL
Cl/F ([2]; gavage 20 mg/kg, Female): 87.5 ± 10.2 mL/min/kg
Cmax ([2]; gavage 20 mg/kg, Female): 2170 ± 380 ng/mL
MRT0-t (h) ([2]; gavage 20 mg/kg, Female): 1.7+0.19 h
MRT0-∞ ([2]; gavage 20 mg/kg, Female): 1.8 ± 0.18 h
Tmax ([2]; gavage 20 mg/kg, Female): 0.50 ± 0.0 h
V2/F ([2]; gavage 20 mg/kg, Female): 30.8 ± 5.67 L/kg
t1/2 ([2]; gavage 20 mg/kg, Female): 4.0 ± 0.35 h
AUC0-t (h·ng/mL) ([2]; gavage 20 mg/kg, Male): 4650+2440 h·ng/mL
AUC0-∞ ([2]; gavage 20 mg/kg, Male): 4660 ± 2440 ng·h/mL
Cl/F ([2]; gavage 20 mg/kg, Male): 83 ± 29.8 mL/min/kg
Cmax ([2]; gavage 20 mg/kg, Male): 2230 ± 531 ng/mL
MRT0-t ([2]; gavage 20 mg/kg, Male): 1.8 ± 0.33 h
MRT0-∞ ([2]; gavage 20 mg/kg, Male): 1.8 ± 0.32 h
Tmax ([2]; gavage 20 mg/kg, Male): 0.88 ± 0.25 h
V2/F ([2]; gavage 20 mg/kg, Male): 26.6 ± 17.0 L/kg
t1/2 ([2]; gavage 20 mg/kg, Male): 3.7 ± 1.7 h
AUC0-t ([2]; gavage 20 mg/kg, Total): 4250 ± 1680 ng·h/mL
AUC0-∞ ([2]; gavage 20 mg/kg, Total): 4250 ± 1680 ng·h/mL
Cl/F ([2]; gavage 20 mg/kg, Total): 85.3 ± 20.8 mL/min/kg
Cmax ([2]; gavage 20 mg/kg, Total): 2200 ± 429 ng/mL
MRT0-t ([2]; gavage 20 mg/kg, Total): 1.8 ± 0.25 h
MRT0-∞ ([2]; gavage 20 mg/kg, Total): 1.8 ± 0.25 h
Tmax ([2]; gavage 20 mg/kg, Total): 0.69 ± 0.26 h
V2/F ([2]; gavage 20 mg/kg, Total): 28.7 ± 11.9 L/kg
t1/2 ([2]; gavage 20 mg/kg, Total): 3.9 ± 1.2 h
water absorption (DVS) ([3]; 80% RH): 28.8%
water absorption (DVS) ([3]; 90% humidity): 49.9%
solid form after DVS test ([3]; after DVS test): converted to amorphous form
behaviour of the sample at high humidity (DVS) ([3]; high humidity): undergoes deliquescence
Hygroscopicity ([3]; result in words): Hygroscopic
Blood drug level ([4]; level of compound V after oral 2.5 mg/kg Form I, 2.5 mg/kg): 190.1 ng/mL
Blood drug level ([4]; level of compound V after oral 2.5 mg/kg Form I, listed as Crystal form I, 2.5 mg/kg): 190.1 ± 62.9 ng/mL
Blood drug level ([4]; level of compound V after oral 5 mg/kg Form I, 5 mg/kg): 181.3 ng/mL
Blood drug level ([4]; level of compound V after oral 10 mg/kg Form I, 10 mg/kg): 341.9 ng/mL
Blood drug level ([4]; level of compound V after oral 10 mg/kg Form I, listed as Crystal form I, 10 mg/kg): 341.9 ± 46.4 ng/mL
Blood drug level ([4]; level of compound V after oral 20 mg/kg Form I, 20 mg/kg): 609.7 ng/mL
Blood drug level ([4]; level of compound V after oral 20 mg/kg Form I, listed as Crystal form I, 20 mg/kg): 609.7 ± 174.0 ng/mL
Content (HPLC) ([5]; 0 month): 99.6%
Hydrolyzed impurities ([5]; 0 month): 0.19%
Moisture ([5]; 0 month): 0.4%
Other individual impurities ([5]; 0 month): <RL(0.05%)
Total impurities ([5]; 0 month): 0.42%
Content (HPLC) ([5]; 1 month): 99.3%
Hydrolyzed impurities ([5]; 1 month): 0.27%
Moisture ([5]; 1 month): 0.5%
Other individual impurities ([5]; 1 month): <RL(0.05%)
Total impurities ([5]; 1 month): 0.54%
Content (HPLC) ([5]; 2 months): 100.3%
Hydrolyzed impurities ([5]; 2 months): 0.28%
Moisture ([5]; 2 months): 0.3%
Other individual impurities ([5]; 2 months): <RL(0.05%)
Total impurities ([5]; 2 months): 0.56%
Content (HPLC) ([5]; 3 months): 100.3%
Hydrolyzed impurities ([5]; 3 months): 0.45%
Moisture ([5]; 3 months): 0.4%
Other individual impurities ([5]; 3 months): <RL(0.05%)
Total impurities ([5]; 3 months): 0.72%
Content (HPLC) ([5]; 6 months): 99.6%
Hydrolyzed impurities ([5]; 6 months): 0.51%
Moisture ([5]; 6 months): 0.3%
Other individual impurities ([5]; 6 months): <RL(0.05%)
Total impurities ([5]; 6 months): 1.02%

CCCCCCOC(=O)NC(=N)c1ccc(CNC(=O)[C@@H]2CCCN2C(=O)[C@@H](CC(C)C)NCC(=O)OCC)cc1 [dihydrochloride]
aqueous solubility (Solubility determination; water, result in words): excellent aqueous solubility

CCCCCCOC(=O)N=C(N)c1ccc(NCc2nc3cc(C(=O)N(CCC(=O)OCC)c4ccccn4)ccc3n2C)cc1 [Dabigatran etexilate, reference compound]
Thrombosis inhibition rate (%) ([1]; 5 mg/kg): 69.9%
Thrombus weight ([1]; 5 mg/kg): 21.4 ± 8.2 mg

CCCCCCOC(=O)NC(=N)c1ccc(CNC(=O)[C@@H]2CCCN2C(=O)[C@@H](CC(C)C)NCC(=O)OCC)cc1 [Form III]
crystalline form after storage ([6]; 60 °C/sealed condition for 7 days): converted to Form I
purity ([6]; after storage at 60 °C/sealed condition for 7 days): 89.35%
purity ([6]; before storage at 60 °C/sealed condition): 95.81%
crystalline form after mechanical milling ([6]; mechanical milling for 2 minutes): converted to Form I
water absorption (DVS) ([3]; 80% RH): 28.8%
water absorption (DVS) ([3]; 90% humidity): 50.0%

From EP4667482A1, “SALT OF DIPEPTIDE COMPOUND, PREPARATION METHOD THEREFOR, AND USE THEREOF” (Zhejiang Huahai Pharmaceutical Co., Ltd., priority 2023, dated 2024)
